{"source": "patent US9370542B2", "about": "“Medical composition containing Stauntonia hexaphylla extract” (JEONNAM BIOINDUSTRY FOUNDATION, priority 2011, dated 2016)", "system": "fever induced by lipopolysaccharide (LPS)", "test": "LPS-induced fever, antipyretic effect of leaf extract (Example 9-1)", "assay_type": "in vivo, Sprague-Dawley male white rats", "experimental": "Test animals were used to determine antipyretic effects of the Stauntonia Hexaphylla leaf extract and fractions thereof prepared in Example 1.\nThe test animals herein used were 5-week old Sprague-Dawley male white mice obtained from Samtako Inc. (Korea). The test animals were bred at a temperature of 20° C. to 24° C. and at a humidity of 60% to 70% under the day-night illumination condition at 12-hour intervals and were freely fed with water and feed. The feed used herein was a solid feed (Samyang Feed Co., Korea). The test animals were bred under the same conditions for 7 days, adapted to laboratory environments and then used for testing.\nSpecifically, 5 mice were randomly selected from the test animals and set as a first group, and 500 μg/kg of lipopolysaccharide (LPS, Sigma, USA) was intraperitoneally injected into the mice to induce fever. Body temperature was measured as follows. Rectal body temperature was measured using a rectal thermometer (Portable Thermocouple Thermometer (Physitemp Instruments, USA) and a stainless steel rectal probe for rats (Physitemp Instruments, USA) and body temperatures of SD mice were measured three times before the test to minimize an temperature increase caused by temperature measurement stress.\nFirst, in order to determine antipyretic effects of the Stauntonia Hexaphylla leaf hot water extract, a negative control group (LPS) not treated with any sample, a first positive control group (APAP) orally administered with 50 mg/kg of acetaminophen (APAP, Sigma, USA), a conventional drug, found to have antipyretic effect, and a second positive control group (Dexamethasone) orally administered with 1 mg/kg of dexamethasone (Sigma, USA) were used.\nFirst, 500 μg/kg of a fever-inducing substance (LPS) was intraperitoneally injected (i.p.) into the test animals that finished preparations for minimization of temperature increase caused by temperature measurement stress, and a non-treated group (LPS), a group (SHL-200) orally administered with 200 mg/kg of the Stauntonia Hexaphylla leaf hot water extraction, a group (APAP) orally administered with 50 mg/kg of acetaminophen, and a group (Dexamethasone) orally administered with 1 mg/kg of dexamethasone were prepared according to type of test groups. In addition, 200 mg/kg of the Stauntonia Hexaphylla leaf hot water extract was orally administered one hour after administration of the fever-inducing substance (SHL-200 (1 h)), and rectal temperatures were measured at one hour, 4 hours and 8 hours over 8 hours in total after the administration of the fever-inducing substance. The measurement results are shown in FIG. 12 and the following Table 3. Values of the following Table 3 mean body temperatures (° C.) measured at different times.", "data": [{"compound": "CC(=O)Nc1ccc(O)cc1", "note": "[APAP, acetaminophen]", "values": [{"measurement": "body temperature (rectal)", "setting": "0 h, 50 mg/kg oral with LPS 500 μg/kg i.p.", "result": 37.2, "unit": "°C"}, {"measurement": "body temperature (rectal)", "setting": "1 h, 50 mg/kg oral with LPS 500 μg/kg i.p.", "result": "36.58 ± 0.67", "unit": "°C"}, {"measurement": "body temperature (rectal)", "setting": "4 h, 50 mg/kg oral with LPS 500 μg/kg i.p.", "result": "37.53 ± 0.59", "unit": "°C"}, {"measurement": "body temperature (rectal)", "setting": "8 h, 50 mg/kg oral with LPS 500 μg/kg i.p.", "result": "37.78 ± 0.13", "unit": "°C"}]}, {"compound": "C[C@@H]1C[C@H]2[C@@H]3CCC4=CC(=O)C=C[C@]4(C)[C@@]3(F)[C@@H](O)C[C@]2(C)[C@@]1(O)C(=O)CO", "note": "[Dexamethasone, dexamethasone]", "values": [{"measurement": "body temperature (rectal)", "setting": "0 h, 1 mg/kg oral with LPS 500 μg/kg i.p.", "result": 37.2, "unit": "°C"}, {"measurement": "body temperature (rectal)", "setting": "1 h, 1 mg/kg oral with LPS 500 μg/kg i.p.", "result": "37.3 ± 0.52", "unit": "°C"}, {"measurement": "body temperature (rectal)", "setting": "4 h, 1 mg/kg oral with LPS 500 μg/kg i.p.", "result": "37.6 ± 0.12", "unit": "°C"}, {"measurement": "body temperature (rectal)", "setting": "8 h, 1 mg/kg oral with LPS 500 μg/kg i.p.", "result": "37.73 ± 0.13", "unit": "°C"}]}]}
